Data as given in article PMC4574636 (Biochemical pharmacology, 2015).

What was measured:
aldehyde oxidase (AOX) = target: T1, aldehyde oxidase (AOX) (Cavia porcellus, UniProt H9TB17); conditions: guinea pig liver cytosol, mean ± SEM; estimate, saturation incomplete
T1 sequence (H9TB17 1-1332): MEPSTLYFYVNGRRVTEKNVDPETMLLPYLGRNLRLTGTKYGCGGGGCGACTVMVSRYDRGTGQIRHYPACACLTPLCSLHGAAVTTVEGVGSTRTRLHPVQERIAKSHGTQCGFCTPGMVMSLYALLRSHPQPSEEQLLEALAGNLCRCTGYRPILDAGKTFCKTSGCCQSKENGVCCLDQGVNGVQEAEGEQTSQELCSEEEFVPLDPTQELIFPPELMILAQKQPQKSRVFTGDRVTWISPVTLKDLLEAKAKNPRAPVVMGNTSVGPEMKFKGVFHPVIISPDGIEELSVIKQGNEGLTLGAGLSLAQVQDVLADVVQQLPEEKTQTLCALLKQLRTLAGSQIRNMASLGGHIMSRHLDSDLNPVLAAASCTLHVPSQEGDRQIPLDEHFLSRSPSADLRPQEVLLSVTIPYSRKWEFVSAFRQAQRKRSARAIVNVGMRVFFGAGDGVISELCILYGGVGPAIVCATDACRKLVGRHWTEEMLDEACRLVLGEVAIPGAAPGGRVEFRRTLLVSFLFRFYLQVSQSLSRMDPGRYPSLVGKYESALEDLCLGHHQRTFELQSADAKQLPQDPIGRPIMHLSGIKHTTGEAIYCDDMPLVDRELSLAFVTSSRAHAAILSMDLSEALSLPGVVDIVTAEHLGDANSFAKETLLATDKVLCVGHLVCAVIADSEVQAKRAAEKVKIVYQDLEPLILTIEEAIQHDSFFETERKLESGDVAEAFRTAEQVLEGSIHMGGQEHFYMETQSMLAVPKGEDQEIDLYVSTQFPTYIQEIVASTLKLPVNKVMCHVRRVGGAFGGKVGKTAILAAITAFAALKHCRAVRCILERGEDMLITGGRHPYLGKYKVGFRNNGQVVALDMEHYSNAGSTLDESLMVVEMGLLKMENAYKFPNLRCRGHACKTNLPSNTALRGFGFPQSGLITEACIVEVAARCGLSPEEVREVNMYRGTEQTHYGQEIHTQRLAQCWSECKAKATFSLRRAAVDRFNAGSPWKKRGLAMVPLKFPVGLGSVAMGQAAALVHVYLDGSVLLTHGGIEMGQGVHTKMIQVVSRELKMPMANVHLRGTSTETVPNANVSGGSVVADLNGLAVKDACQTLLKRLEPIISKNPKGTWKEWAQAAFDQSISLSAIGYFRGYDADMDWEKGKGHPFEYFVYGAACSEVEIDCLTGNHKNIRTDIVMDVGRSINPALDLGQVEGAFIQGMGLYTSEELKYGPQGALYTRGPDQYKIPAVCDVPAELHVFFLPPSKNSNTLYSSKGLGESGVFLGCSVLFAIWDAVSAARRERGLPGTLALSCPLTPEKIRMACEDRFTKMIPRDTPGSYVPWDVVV

[1] = target: T2, human AOX1 I1085A+ V1016R (Homo sapiens, UniProt Q06278, I1085A/V1016R); conditions: I1085A+ V1016R double mutant, Figure 5
T2 sequence (Q06278 1-1338 V1016R/I1085A): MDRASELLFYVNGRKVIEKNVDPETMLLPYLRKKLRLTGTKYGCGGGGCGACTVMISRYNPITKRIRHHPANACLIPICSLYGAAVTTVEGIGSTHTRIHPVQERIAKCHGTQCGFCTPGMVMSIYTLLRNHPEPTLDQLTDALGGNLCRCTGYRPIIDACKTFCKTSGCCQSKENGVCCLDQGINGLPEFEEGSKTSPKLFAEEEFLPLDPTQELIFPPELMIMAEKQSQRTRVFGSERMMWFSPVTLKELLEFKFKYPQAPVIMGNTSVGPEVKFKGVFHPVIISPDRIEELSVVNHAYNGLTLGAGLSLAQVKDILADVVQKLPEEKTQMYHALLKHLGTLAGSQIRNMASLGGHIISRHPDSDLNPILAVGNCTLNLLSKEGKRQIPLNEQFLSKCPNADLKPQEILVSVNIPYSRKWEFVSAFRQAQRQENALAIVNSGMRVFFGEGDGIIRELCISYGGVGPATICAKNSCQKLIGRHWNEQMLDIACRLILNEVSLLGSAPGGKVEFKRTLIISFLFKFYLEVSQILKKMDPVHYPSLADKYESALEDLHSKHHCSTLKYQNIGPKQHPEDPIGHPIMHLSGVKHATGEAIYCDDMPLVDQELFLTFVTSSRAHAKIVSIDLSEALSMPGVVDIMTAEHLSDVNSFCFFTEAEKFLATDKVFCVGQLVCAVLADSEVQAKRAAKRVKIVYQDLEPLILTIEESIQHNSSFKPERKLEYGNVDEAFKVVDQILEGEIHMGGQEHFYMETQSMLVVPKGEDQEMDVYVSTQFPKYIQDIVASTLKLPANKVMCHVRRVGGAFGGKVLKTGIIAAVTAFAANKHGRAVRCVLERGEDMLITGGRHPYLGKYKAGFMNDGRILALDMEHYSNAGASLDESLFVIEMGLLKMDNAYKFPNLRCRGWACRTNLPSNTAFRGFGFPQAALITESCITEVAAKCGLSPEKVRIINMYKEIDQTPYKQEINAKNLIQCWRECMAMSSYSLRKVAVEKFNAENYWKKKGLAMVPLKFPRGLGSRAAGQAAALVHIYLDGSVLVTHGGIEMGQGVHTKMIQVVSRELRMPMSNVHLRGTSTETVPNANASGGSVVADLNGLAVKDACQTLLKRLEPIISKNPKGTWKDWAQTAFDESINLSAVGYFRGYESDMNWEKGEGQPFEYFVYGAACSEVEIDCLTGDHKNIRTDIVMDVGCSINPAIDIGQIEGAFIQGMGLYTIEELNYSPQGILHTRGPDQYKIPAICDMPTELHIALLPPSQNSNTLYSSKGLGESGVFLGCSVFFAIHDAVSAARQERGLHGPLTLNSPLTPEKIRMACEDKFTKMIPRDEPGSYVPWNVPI

**Q.** CN(Cc1cnc2nc(N)nc(N)c2n1)c1ccc(C(=O)N[C@@H](CCC(=O)O)C(=O)O)cc1 [Methotrexate, 4-amino-N^1^0-methylpteroglutamic acid] was tested. Which Vmax (aldehyde oxidase (AOX)) did it give?
**A.** 70 ± 10 pmol/min/mg

**Q.** And the “Km / affinity vs wild type” value [1]?
**A.** decreased affinity for methotrexate compared to wild type AOX1

**Q.** And the Methotrexate hydroxylation activity [1]?
**A.** significant decrease in activity compared to the wild type and I1085A
